Test results published in patent US11319299B2, “Substituted carboxamides as inhibitors of WDR5 protein-protein binding” (PROPELLON THERAPEUTICS INC., priority 2016, dated 2022).

target: WDR5 (Homo sapiens (Human), UniProt P61964); assay: Surface Plasmon Resonance (SPR) assay, KD and residence time; assay type: binding; settings: surface plasmon resonance (SPR); read-out: WDR5 binding affinity (KD)

Row | SMILES | Kd
1 | C[C@@H]1CN(c2cc(F)c(-c3cc(F)c(C(N)=O)c(F)c3)cc2NC(=O)c2ccc(F)cc2C(F)(F)F)C[C@H](C)N1C [Example 656, 2,6-difluoro-4-[2-fluoro-5-[[4-fluoro-2-(trifluoromethyl)benzoyl]amino]-4-[(3R,5S)-3,4,5-trimethylpiperazin-1-yl]phenyl]benzamide] | 5.44 nM
2 | C[C@@H]1CN(c2cc(F)c(-c3ccc(C(=O)NC(C)(C)CC(C)(C)C)c(F)c3F)cc2NC(=O)c2ccc(F)cc2C(F)(F)F)C[C@H](C)N1C [Example 665, 2,3-difluoro-4-[2-fluoro-5-[[4-fluoro-2-(trifluoromethyl)benzoyl]amino]-4-[(3R,5S)-3,4,5-trimethylpiperazin-1-yl]phenyl]-N-(2,4,4-trimethylpentan-2-yl)benzamide] | 151 nM
3 | C[C@@H]1CN(c2cc(F)c(-c3ccc(C(N)=O)c(F)c3F)cc2NC(=O)c2ccc(F)cc2C(F)(F)F)C[C@H](C)N1C [Example 667, 2,3-difluoro-4-[2-fluoro-5-[[4-fluoro-2-(trifluoromethyl)benzoyl]amino]-4-[(3R,5S)-3,4,5-trimethylpiperazin-1-yl]phenyl]benzamide] | 9.65 nM
4 | C[C@@H]1CN(c2cc(F)c(-c3ccc(C(=O)NC(C)(C)CC(C)(C)C)c(F)c3F)cc2NC(=O)c2c[nH]c(=O)cc2C(F)(F)F)C[C@H](C)N1C [Example 669, N-[5-[2,3-difluoro-4-(2,4,4-trimethylpentan-2-ylcarbamoyl)phenyl]-4-fluoro-2-[(3R,5S)-3,4,5-trimethylpiperazin-1-yl]phenyl]-6-oxo-4-(trifluoromethyl)-1H-pyridine-3-carboxamide] | 9.71 nM
5 | C[C@@H]1CN(c2cc(F)c(-c3ccc(C(N)=O)c(F)c3F)cc2NC(=O)c2c[nH]c(=O)cc2C(F)(F)F)C[C@H](C)N1C [Example 670, N-[5-(4-carbamoyl-2,3-difluorophenyl)-4-fluoro-2-[(3R,5S)-3,4,5-trimethylpiperazin-1-yl]phenyl]-6-oxo-4-(trifluoromethyl)-1H-pyridine-3-carboxamide] | 3.85 nM
6 | CC(C)OC(=O)N1CCC=C(c2cc(NC(=O)c3c[nH]c(=O)cc3C(F)(F)F)c(N3C[C@@H](C)N(C)[C@@H](C)C3)cc2F)CC1 [Example 674, Propan-2-yl 4-[2-fluoro-5-[[6-oxo-4-(trifluoromethyl)-1H-pyridine-3-carbonyl]amino]-4-[(3R,5S)-3,4,5-trimethylpiperazin-1-yl]phenyl]-2,3,6,7-tetrahydroazepine-1-carboxylate] | 4.94 nM
7 | C[C@@H]1CN(c2cc(F)c(-c3ccc4ncn(C)c4c3)cc2NC(=O)c2c[nH]c(=O)cc2C(F)(F)F)C[C@H](C)N1C [Example 676, N-[4-fluoro-5-(3-methylbenzimidazol-5-yl)-2-[(3R,5S)-3,4,5-trimethylpiperazin-1-yl]phenyl]-6-oxo-4-(trifluoromethyl)-1H-pyridine-3-carboxamide] | 4.39 nM
8 | C[C@@H]1CN(c2cc(F)c(-c3cccc4scnc34)cc2NC(=O)c2c[nH]c(=O)cc2C(F)(F)F)C[C@H](C)N1C [Example 677, N-[5-(1,3-benzothiazol-4-yl)-4-fluoro-2-[(3R,5S)-3,4,5-trimethylpiperazin-1-yl]phenyl]-6-oxo-4-(trifluoromethyl)-1H-pyridine-3-carboxamide] | 5.29 nM
9 | C[C@@H]1CN(c2cc(F)c(-c3ccc4scnc4c3)cc2NC(=O)c2c[nH]c(=O)cc2C(F)(F)F)C[C@H](C)N1C [Example 678, N-[5-(1,3-benzothiazol-5-yl)-4-fluoro-2-[(3R,5S)-3,4,5-trimethylpiperazin-1-yl]phenyl]-6-oxo-4-(trifluoromethyl)-1H-pyridine-3-carboxamide] | 3.26 nM

Now from value to compound:

Row | Kd | SMILES
10 | 1.59 nM | COc1cc(N2CC=C(c3cc(NC(=O)c4c[nH]c(=O)cc4C(F)F)c(N4C[C@@H](C)N(C)[C@@H](C)C4)cc3F)CC2)ncn1 [Example 647, 4-(difluoromethyl)-N-[4-fluoro-5-[1-(6-methoxypyrimidin-4-yl)-3,6-dihydro-2H-pyridin-4-yl]-2-[(3R,5S)-3,4,5-trimethylpiperazin-1-yl]phenyl]-6-oxo-1H-pyridine-3-carboxamide]
11 | 1.97 nM | CCOC(=O)N1CCC=C(c2cc(NC(=O)c3c[nH]c(=O)cc3C(F)F)c(N3C[C@@H](C)N(C)[C@@H](C)C3)cc2F)C1 [Example 648, Ethyl 5-[5-[[4-(difluoromethyl)-6-oxo-1H-pyridine-3-carbonyl]amino]-2-fluoro-4-[(3R,5S)-3,4,5-trimethylpiperazin-1-yl]phenyl]-3,6-dihydro-2H-pyridine-1-carboxylate]
12 | 0.897 nM | C[C@@H]1CN(c2cc(F)c(C3=CCN(C(=O)OC4(C)CCC4)CC3)cc2NC(=O)c2c[nH]c(=O)cc2C(F)F)C[C@H](C)N1C [Example 651, (1-methylcyclobutyl) 4-[5-[[4-(difluoromethyl)-6-oxo-1H-pyridine-3-carbonyl]amino]-2-fluoro-4-[(3R,5S)-3,4,5-trimethylpiperazin-1-yl]phenyl]-3,6-dihydro-2H-pyridine-1-carboxylate]
13 | 1.88 nM | C[C@@H]1CN(c2cc(F)c(-c3cc(F)c(C(N)=O)c(F)c3)cc2NC(=O)c2c[nH]c(=O)cc2C(F)(F)F)C[C@H](C)N1C [Example 658, N-[5-(4-carbamoyl-3,5-difluorophenyl)-4-fluoro-2-[(3R,5S)-3,4,5-trimethylpiperazin-1-yl]phenyl]-6-oxo-4-(trifluoromethyl)-1H-pyridine-3-carboxamide]
14 | 1.93 nM | C[C@@H]1CN(c2cc(F)c(-c3cc(F)c(C(N)=O)c(F)c3)cc2NC(=O)c2c[nH]c(=O)cc2C(F)F)C[C@H](C)N1C [Example 659, N-[5-(4-carbamoyl-3,5-difluorophenyl)-4-fluoro-2-[(3R,5S)-3,4,5-trimethylpiperazin-1-yl]phenyl]-4-(difluoromethyl)-6-oxo-1H-pyridine-3-carboxamide]
15 | 3.23 nM | CC(C)N1CCN(c2ncc(-c3cc(NC(=O)c4cn(C)c(=O)cc4C(F)(F)F)c(N4C[C@@H](C)N(C)[C@@H](C)C4)cc3F)cn2)CC1 [Example 661, N-[4-fluoro-5-[2-(4-propan-2-ylpiperazin-1-yl)pyrimidin-5-yl]-2-[(3R,5S)-3,4,5-trimethylpiperazin-1-yl]phenyl]-1-methyl-6-oxo-4-(trifluoromethyl)pyridine-3-carboxamide]
16 | 2.29 nM | C[C@@H]1CN(c2cc(F)c(-c3cnc(N4CCOC(C)(C)C4)nc3)cc2NC(=O)c2cn(C)c(=O)cc2C(F)(F)F)C[C@H](C)N1C [Example 662, N-[5-[2-(2,2-dimethylmorpholin-4-yl)pyrimidin-5-yl]-4-fluoro-2-[(3R,5S)-3,4,5-trimethylpiperazin-1-yl]phenyl]-1-methyl-6-oxo-4-(trifluoromethyl)pyridine-3-carboxamide]
17 | 1.97 nM | C[C@@H]1CN(c2cc(F)c(-c3ccc4c(c3)ncn4C)cc2NC(=O)c2c[nH]c(=O)cc2C(F)(F)F)C[C@H](C)N1C [Example 675, N-[4-fluoro-5-(1-methylbenzimidazol-5-yl)-2-[(3R,5S)-3,4,5-trimethylpiperazin-1-yl]phenyl]-6-oxo-4-(trifluoromethyl)-1H-pyridine-3-carboxamide]
18 | 2.97 nM | C[C@@H]1CN(c2cc(F)c(-c3ccc4ncsc4c3)cc2NC(=O)c2c[nH]c(=O)cc2C(F)(F)F)C[C@H](C)N1C [Example 679, N-[5-(1,3-benzothiazol-6-yl)-4-fluoro-2-[(3R,5S)-3,4,5-trimethylpiperazin-1-yl]phenyl]-6-oxo-4-(trifluoromethyl)-1H-pyridine-3-carboxamide]
